Measured values: patent US8334377B2, “Porphyrin catalysts and methods of use thereof” (The Trustees of Princeton University, priority 2006, dated 2012)

What was measured:
[1] = Determination of peroxynitrite decomposition catalysis: rates of reaction between peroxynitrite and iron porphyrins in phosphate buffer; assay type: biochemical; settings: phosphate buffer pH=7.4
Procedure: To screen compounds for peroxynitrite decomposition catalytic activity of the invention, peroxynitrite is prepared and isolated as its sodium salt by the reaction of acidic hydrogen peroxide with sodium nitrite followed by rapid quenching with NaOH as set out by Halfpenny and Robinson, in J. Chem. Soc., 928-938 (1952). Peroxynitrite has an absorbance maximum at 302 nm with an extinction coefficient of 1670 M^−1 cm^−1. Therefore, it is possible to directly observe the decomposition of peroxynitrite by monitoring the change in absorbance at 302 nm by stop-flow spectrophotometric analysis. For example, the decomposition of peroxynitrite at an accelerated rate (relative to the natural decomposition rate of peroxynitrite) upon the addition of the decomposition catalysts of the invention.
A high rate of peroxynitrite decomposition is an important indicator of biological activity in vitro and in vivo. The rates of reaction between peroxynitrite and various iron porphyrins were measured at several different concentrations of catalyst in phosphate buffer (pH=7.4). The ONOO^− decay rate (M^−1s^−1) for FeTDMImP was determined to be […], and the keat, for FeTDCMImP was measured at 4.6×10^5. In the same studies the decay rates for the iron porphyrins FeTDMImP, FeTDCMImP, FeTDPImP (see, e.g., U.S. Pat. No. 6,448,239) were 1.1×10^6. 4.6×10^5 and 1.9×10^6, respectively.

[2] = Stopped-flow spectrometry of peroxynitrite decomposition, absorption of peroxynitrite at 324 nm monitored; assay type: biochemical; settings: pH 7.4 phosphate buffer
Procedure: FIG. 4 is stopped-flow spectroscopy of peroxynitrite decomposition catalyzed by FeTDCImP (12). (A) diode array scan of 10 μM (12) in pH 7.4 PBS mixed with 600 μM, t=2 s; (B) decay of peroxynitrite monitored at 324 nm, condition that same as in A. It was fitted into a first order kinetics model using KinetAssyst software. Data was average of four parallel experiments.
It was rationalized that the electron-withdrawing cationic feature elevated its catalytic activity as compared to anionic porphyrins, while its electron-donating anionic feature lowered its catalytic activity as compared to cationic porphyrins.

Compound: COCCOCCn1cc[n+](CCOCCOC)c1-c1c2nc(c(-c3n(CCOCCOC)cc[n+]3CCOCCOC)c3ccc([n-]3)c(-c3n(CCOCCOC)cc[n+]3CCOCCOC)c3nc(c(-c4n(CCOCCOC)cc[n+]4CCOCCOC)c4ccc1[n-]4)C=C3)C=C2.[Fe+3] [FeTDPImP, iron(III) meso-tetrakis(N,N-di-(2-(2-methoxyethoxy)ethyl)-imidazol-2-yl)porphyrin]
- decay rates for the iron porphyrins (in the same studies) [1]: 1.9×10^6

Compound: iron(III) meso-tetrakis(N,N-dicarboxymethyl)-imidazol-2-yl)porphyrin [FeTDCMImP]
- decay rates for the iron porphyrins (in the same studies) [1]: 4.6×10^5
- keat [1]: 4.6×10^5
- second order rate constant of peroxynitrite decomposition [2]: 430000 M⁻¹ s⁻¹
